Laboratory results as given in ChEMBL document CHEMBL4507318, “Data for DCP probe BAY-985” (2021).

Assays:
[1] = tested on: Tyrosine-protein kinase ABL1 (Homo sapiens), P00519 [M351T]
[2] = tested on: Tyrosine-protein kinase ABL1 (Homo sapiens), P00519 [Q252H]
[3] = biological target: Tyrosine-protein kinase ABL1 (Homo sapiens) (UniProt P00519)
[4] = biological target: Tyrosine-protein kinase ABL2 (Homo sapiens) (UniProt P42684)
[5] = biological target: Aurora kinase C (Homo sapiens) (UniProt Q9UQB9)
[6] = biological target: Bone morphogenetic protein receptor type-1A (Homo sapiens) (UniProt P36894)
[7] = biological target: Cyclin-dependent kinase-like 1 (Homo sapiens) (UniProt Q00532)
Chain of Cyclin-dependent kinase-like 1 (Homo sapiens) (Q00532 whole entry): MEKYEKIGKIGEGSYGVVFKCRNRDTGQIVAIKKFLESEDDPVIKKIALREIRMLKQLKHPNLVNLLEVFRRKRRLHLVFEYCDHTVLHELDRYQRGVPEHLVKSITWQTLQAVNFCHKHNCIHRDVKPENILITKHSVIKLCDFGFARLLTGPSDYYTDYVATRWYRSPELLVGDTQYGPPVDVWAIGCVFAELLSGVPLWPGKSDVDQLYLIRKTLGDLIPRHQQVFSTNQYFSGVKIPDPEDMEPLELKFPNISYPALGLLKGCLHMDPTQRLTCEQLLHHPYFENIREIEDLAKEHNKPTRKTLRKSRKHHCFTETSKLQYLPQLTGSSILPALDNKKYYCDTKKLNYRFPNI

[8] = biological target: Serine/threonine-protein kinase Chk1 (Homo sapiens) (UniProt O14757)
[9] = biological target: Megakaryocyte-associated tyrosine-protein kinase (Homo sapiens) (UniProt P42679)
[10] = biological target: Serine/threonine-protein kinase DCLK3 (Homo sapiens) (UniProt Q9C098)
[11] = biological target: Epithelial discoidin domain-containing receptor 1 (Homo sapiens) (UniProt Q08345)
[12] = biological target: Receptor tyrosine-protein kinase erbB-2 (Homo sapiens) (UniProt P04626)
[13] = biological target: Fibroblast growth factor receptor 1 (Homo sapiens) (UniProt P11362)
[14] = tested on: Fibroblast growth factor receptor 3 (Homo sapiens), P22607 [G697C]
[15] = biological target: Receptor-type tyrosine-protein kinase FLT3 (Homo sapiens) (UniProt P36888)
[16] = biological target: Vascular endothelial growth factor receptor 3 (Homo sapiens) (UniProt P35916)
Chain of Vascular endothelial growth factor receptor 3 (Homo sapiens) (P35916 whole entry): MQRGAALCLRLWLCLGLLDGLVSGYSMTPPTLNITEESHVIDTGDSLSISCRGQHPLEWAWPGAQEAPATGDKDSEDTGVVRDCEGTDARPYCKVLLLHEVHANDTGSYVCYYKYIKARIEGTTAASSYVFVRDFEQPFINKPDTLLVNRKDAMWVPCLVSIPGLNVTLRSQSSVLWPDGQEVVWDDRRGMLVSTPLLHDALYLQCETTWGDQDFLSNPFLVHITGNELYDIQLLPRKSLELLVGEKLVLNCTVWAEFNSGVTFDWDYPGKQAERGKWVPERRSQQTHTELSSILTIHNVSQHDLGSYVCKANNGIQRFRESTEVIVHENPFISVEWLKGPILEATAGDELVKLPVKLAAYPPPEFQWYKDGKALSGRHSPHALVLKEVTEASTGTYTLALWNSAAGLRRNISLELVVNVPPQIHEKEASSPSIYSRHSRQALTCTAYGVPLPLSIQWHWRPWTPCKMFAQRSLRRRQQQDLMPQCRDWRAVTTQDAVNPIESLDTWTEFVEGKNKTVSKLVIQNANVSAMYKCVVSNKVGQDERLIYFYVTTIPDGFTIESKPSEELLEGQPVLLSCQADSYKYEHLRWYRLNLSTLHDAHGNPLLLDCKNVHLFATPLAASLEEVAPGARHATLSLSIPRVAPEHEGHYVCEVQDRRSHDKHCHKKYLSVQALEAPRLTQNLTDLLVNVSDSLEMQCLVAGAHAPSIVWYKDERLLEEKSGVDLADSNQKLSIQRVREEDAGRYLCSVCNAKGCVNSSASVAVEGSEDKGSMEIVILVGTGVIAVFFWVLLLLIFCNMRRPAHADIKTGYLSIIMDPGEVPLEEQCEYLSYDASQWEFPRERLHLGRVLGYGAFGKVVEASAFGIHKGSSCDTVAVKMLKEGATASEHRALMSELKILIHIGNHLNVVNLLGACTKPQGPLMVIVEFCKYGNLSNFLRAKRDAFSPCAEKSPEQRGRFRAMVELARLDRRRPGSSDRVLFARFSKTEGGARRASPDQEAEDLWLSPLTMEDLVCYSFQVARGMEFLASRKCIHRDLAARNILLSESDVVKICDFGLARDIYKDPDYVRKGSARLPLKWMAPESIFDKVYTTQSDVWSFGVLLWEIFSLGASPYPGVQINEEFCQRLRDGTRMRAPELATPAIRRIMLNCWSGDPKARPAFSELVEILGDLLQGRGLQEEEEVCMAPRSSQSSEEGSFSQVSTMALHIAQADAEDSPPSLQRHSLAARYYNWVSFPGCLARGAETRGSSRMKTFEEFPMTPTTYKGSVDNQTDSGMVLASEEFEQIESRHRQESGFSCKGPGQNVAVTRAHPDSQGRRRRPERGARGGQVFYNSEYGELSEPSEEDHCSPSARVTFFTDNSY

[17] = biological target: Rhodopsin kinase GRK7 (Homo sapiens) (UniProt Q8WTQ7)
[18] = biological target: Serine/threonine-protein kinase haspin (Homo sapiens) (UniProt Q8TF76)
[19] = biological target: Serine/threonine-protein kinase ICK (Homo sapiens) (UniProt Q9UPZ9)
[20] = biological target: Inhibitor of nuclear factor kappa-B kinase subunit alpha (Homo sapiens) (UniProt O15111)
[21] = biological target: Insulin receptor (Homo sapiens) (UniProt P06213)
Chain of Insulin receptor (Homo sapiens) (P06213 28-758 limits assumed): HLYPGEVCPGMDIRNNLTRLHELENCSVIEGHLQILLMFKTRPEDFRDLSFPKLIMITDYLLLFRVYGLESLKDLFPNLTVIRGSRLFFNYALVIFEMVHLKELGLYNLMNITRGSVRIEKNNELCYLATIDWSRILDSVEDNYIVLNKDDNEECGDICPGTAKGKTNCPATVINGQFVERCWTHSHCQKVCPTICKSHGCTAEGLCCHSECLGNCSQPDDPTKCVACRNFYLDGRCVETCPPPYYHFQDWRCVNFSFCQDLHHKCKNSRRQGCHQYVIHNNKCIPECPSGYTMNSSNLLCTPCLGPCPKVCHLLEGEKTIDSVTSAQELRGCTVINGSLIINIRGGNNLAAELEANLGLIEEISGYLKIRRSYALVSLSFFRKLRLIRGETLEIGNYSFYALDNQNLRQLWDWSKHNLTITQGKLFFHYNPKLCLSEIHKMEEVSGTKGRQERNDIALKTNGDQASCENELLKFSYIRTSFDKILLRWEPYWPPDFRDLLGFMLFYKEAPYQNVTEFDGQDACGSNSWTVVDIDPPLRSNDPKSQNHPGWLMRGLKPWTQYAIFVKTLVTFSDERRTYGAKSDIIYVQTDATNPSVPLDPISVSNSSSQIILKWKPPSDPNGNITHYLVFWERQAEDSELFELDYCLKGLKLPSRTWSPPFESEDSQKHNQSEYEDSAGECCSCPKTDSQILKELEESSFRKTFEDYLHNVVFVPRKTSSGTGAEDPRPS
Chain of Insulin receptor (Homo sapiens) (P06213 763-1382 limits assumed): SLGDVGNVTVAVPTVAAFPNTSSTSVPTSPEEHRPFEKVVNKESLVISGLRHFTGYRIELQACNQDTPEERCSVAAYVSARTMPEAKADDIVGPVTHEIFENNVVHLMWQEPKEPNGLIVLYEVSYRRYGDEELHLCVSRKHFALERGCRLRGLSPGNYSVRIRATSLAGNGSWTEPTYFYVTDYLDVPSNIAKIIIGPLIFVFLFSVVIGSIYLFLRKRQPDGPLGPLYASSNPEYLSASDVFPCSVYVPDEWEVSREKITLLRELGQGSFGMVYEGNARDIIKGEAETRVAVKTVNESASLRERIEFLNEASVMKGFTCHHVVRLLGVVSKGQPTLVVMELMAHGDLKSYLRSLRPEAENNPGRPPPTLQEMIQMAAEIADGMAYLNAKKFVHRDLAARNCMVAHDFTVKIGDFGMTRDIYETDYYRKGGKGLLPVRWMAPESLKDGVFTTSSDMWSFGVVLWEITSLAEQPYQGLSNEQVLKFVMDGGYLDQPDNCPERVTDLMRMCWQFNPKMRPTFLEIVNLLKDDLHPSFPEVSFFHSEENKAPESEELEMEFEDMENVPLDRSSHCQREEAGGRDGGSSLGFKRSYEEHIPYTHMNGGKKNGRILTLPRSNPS

[22] = biological target: Mast/stem cell growth factor receptor Kit (Homo sapiens) (UniProt P10721)
[23] = tested on: Mast/stem cell growth factor receptor Kit (Homo sapiens), P10721 [A829P]
[24] = tested on: Mast/stem cell growth factor receptor Kit (Homo sapiens), P10721 [D816H]
[25] = biological target: Leucine-rich repeat serine/threonine-protein kinase 2 (Homo sapiens) (UniProt Q5S007)
[26] = biological target: Serine/threonine-protein kinase 3 (Homo sapiens) (UniProt Q13188)
Chain of Serine/threonine-protein kinase 3 (Homo sapiens) (Q13188 whole entry, canonical isoform): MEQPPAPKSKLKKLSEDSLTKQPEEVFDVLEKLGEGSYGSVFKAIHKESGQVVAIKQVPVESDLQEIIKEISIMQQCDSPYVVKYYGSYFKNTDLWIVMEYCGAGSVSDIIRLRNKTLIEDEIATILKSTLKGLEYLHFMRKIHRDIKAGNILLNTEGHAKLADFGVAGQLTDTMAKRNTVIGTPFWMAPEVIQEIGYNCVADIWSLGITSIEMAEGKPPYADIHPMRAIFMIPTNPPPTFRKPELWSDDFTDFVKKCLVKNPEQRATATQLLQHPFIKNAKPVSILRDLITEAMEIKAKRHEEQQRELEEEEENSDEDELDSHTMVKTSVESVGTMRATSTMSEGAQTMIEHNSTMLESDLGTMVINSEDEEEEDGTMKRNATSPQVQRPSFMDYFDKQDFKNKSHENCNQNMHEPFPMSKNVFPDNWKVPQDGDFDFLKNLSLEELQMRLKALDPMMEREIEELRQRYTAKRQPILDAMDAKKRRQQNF

[27] = tested on: Phosphatidylinositol 4,5-bisphosphate 3-kinase catalytic subunit alpha isoform (Homo sapiens), P42336 [Q546K]
[28] = biological target: Phosphatidylinositol 4,5-bisphosphate 3-kinase catalytic subunit delta isoform (Homo sapiens) (UniProt O00329)
[29] = biological target: Phosphatidylinositol 5-phosphate 4-kinase type-2 beta (Homo sapiens) (UniProt P78356)
[30] = biological target: Serine/threonine-protein kinase PLK1 (Homo sapiens) (UniProt P53350)
[31] = biological target: Serine/threonine-protein kinase D2 (Homo sapiens) (UniProt Q9BZL6)
[32] = biological target: Protein-tyrosine kinase 2-beta (Homo sapiens) (UniProt Q14289)
[33] = biological target: Serine/threonine-protein kinase RIO2 (Homo sapiens) (UniProt Q9BVS4)
[34] = biological target: Rho-associated protein kinase 2 (Homo sapiens) (UniProt O75116)
[35] = biological target: Ribosomal protein S6 kinase alpha-2 (Homo sapiens) (UniProt Q15349)
[36] = biological target: SNF-related serine/threonine-protein kinase (Homo sapiens) (UniProt Q9NRH2)
[37] = biological target: Serine/threonine-protein kinase 35 (Homo sapiens) (UniProt Q8TDR2)
[38] = biological target: Mitogen-activated protein kinase kinase kinase 7 (Homo sapiens) (UniProt O43318)
[39] = biological target: Non-receptor tyrosine-protein kinase TNK1 (Homo sapiens) (UniProt Q13470)
[40] = biological target: Activated CDC42 kinase 1 (Homo sapiens) (UniProt Q07912)
Chain of Activated CDC42 kinase 1 (Homo sapiens) (Q07912 whole entry, looked up): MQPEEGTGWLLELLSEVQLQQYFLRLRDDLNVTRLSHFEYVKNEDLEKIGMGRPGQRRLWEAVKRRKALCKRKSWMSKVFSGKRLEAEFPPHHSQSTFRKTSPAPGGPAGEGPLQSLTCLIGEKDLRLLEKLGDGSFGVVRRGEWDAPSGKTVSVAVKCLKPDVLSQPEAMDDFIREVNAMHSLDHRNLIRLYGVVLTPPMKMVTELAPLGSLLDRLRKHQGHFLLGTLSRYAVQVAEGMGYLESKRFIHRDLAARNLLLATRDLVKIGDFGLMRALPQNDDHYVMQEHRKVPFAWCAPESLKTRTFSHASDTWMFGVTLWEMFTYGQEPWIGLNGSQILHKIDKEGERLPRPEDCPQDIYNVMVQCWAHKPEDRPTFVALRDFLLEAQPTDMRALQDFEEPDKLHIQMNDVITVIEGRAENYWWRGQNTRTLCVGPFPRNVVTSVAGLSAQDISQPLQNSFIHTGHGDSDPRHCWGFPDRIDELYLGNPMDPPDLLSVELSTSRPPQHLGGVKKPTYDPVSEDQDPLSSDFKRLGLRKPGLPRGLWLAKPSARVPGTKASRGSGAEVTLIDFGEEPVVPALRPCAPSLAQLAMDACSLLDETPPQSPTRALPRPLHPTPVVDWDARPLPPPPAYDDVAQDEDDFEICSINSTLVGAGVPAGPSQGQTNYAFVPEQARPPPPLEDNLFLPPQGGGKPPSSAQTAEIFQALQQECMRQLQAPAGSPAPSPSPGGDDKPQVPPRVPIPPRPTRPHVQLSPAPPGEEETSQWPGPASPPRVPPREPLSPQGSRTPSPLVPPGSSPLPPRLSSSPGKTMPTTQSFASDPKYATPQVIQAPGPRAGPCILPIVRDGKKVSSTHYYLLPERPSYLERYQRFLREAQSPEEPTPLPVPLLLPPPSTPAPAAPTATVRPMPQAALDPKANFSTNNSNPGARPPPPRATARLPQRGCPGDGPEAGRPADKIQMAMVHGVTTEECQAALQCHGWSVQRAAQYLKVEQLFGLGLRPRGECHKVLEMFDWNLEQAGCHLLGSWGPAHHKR

[41] = biological target: Tyrosine-protein kinase receptor TYRO3 (Homo sapiens) (UniProt Q06418)
[42] = biological target: Serine/threonine-protein kinase 25 (Homo sapiens) (UniProt O00506)
Chain of Serine/threonine-protein kinase 25 (Homo sapiens) (O00506 whole entry, looked up): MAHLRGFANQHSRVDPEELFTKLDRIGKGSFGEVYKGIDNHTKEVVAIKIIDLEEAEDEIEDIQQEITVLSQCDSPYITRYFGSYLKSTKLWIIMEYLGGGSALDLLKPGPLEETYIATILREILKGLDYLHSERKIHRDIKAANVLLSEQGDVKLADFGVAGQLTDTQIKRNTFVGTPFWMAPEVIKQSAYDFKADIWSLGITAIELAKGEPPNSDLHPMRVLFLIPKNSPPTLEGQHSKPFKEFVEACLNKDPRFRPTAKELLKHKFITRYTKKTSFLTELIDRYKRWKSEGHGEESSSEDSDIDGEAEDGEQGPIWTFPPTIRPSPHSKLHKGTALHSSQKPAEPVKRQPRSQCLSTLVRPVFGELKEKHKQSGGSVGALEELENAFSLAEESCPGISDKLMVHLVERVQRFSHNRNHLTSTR

[43] = biological target: 5-hydroxytryptamine receptor 7 (Homo sapiens) (UniProt P34969); conditions: Compound concentration 10.0 uM
[44] = biological target: GABA-A receptor; anion channel (Rattus norvegicus) (UniProt O09028+P15431+P18506+P18508+P19969+P20236+P23574+P23576+P28471+P28473+P30191+P62813+P63079+P63138+Q91ZM7+Q9ES14); conditions: Compound concentration 10.0 uM
[45] = Compound concentration 1000.0 nM
[46] = Compound concentration 100.0 nM

CN(C)c1ncnc(-c2ccc3nc(Nc4cc(CN5CCN(C(=O)CC(F)(F)F)CC5)ccn4)[nH]c3c2)c1Cl [BAY-440] gave a residual activity [1, 45] of 43%, a residual activity [2, 45] of 22% and a residual activity [3, 45] of 26%. For the same compound, the residual activity [4, 45] was 71%, the residual activity [5, 45] was 100% and the residual activity [6, 45] was 95%. It also gave a residual activity [7, 45] of 96%, a residual activity [8, 45] of 97% and a residual activity [9, 45] of 69%. For the same compound, the residual activity [10, 45] was 92%, the residual activity [11, 45] was 75% and the residual activity [12, 45] was 87%. The residual activity [13, 45] was 100%, the residual activity [14, 45] was 100% and the residual activity [15, 45] was 71%. For the same compound, the residual activity [16, 45] was 63%, the residual activity [17, 45] was 90% and the residual activity [18, 45] was 100%. It also gave a residual activity [19, 45] of 100%, a residual activity [20, 45] of 69% and a residual activity [21, 45] of 100%. For the same compound, the residual activity [22, 45] was 100%, the residual activity [23, 45] was 53% and the residual activity [24, 45] was 75%. The residual activity [25, 45] was 84%, the residual activity [26, 45] was 100% and the residual activity [27, 45] was 30%. For the same compound, the residual activity [28, 45] was 67%, the residual activity [29, 45] was 52% and the residual activity [30, 45] was 59%. For the same compound, the residual activity [31, 45] was 84%, the residual activity [32, 45] was 85% and the residual activity [33, 45] was 81%. It also gave a residual activity [34, 45] of 91%, a residual activity [35, 45] of 100% and a residual activity [36, 45] of 100%. The residual activity [37, 45] was 83%, the residual activity [38, 45] was 74% and the residual activity [39, 45] was 96%. It also gave a residual activity [40, 45] of 96%, a residual activity [41, 45] of 100% and a residual activity [42, 45] of 100%. For the same compound, the inhibition [43] was 13.4% and the inhibition [44] was 14%.

C[C@H](c1ccnc(Nc2nc3ccc(-c4cc(N(C)C)ncn4)cc3[nH]2)c1)N1CCN(C(=O)CC(F)(F)F)CC1 [BAY-985] gave a residual activity [1, 46] of 100%, a residual activity [2, 46] of 94% and a residual activity [3, 46] of 89%. The residual activity [4, 46] was 100%, the residual activity [5, 46] was 100% and the residual activity [6, 46] was 97%. It also gave a residual activity [7, 46] of 100%, a residual activity [8, 46] of 87% and a residual activity [9, 46] of 95%. The residual activity [10, 46] was 100%, the residual activity [11, 46] was 100% and the residual activity [12, 46] was 100%. For the same compound, the residual activity [13, 46] was 100%, the residual activity [14, 46] was 100% and the residual activity [15, 46] was 67%. For the same compound, the residual activity [16, 46] was 92%, the residual activity [17, 46] was 89% and the residual activity [18, 46] was 100%. For the same compound, the residual activity [19, 46] was 88%, the residual activity [20, 46] was 95% and the residual activity [21, 46] was 100%. The residual activity [22, 46] was 88%, the residual activity [23, 46] was 83% and the residual activity [24, 46] was 82%. For the same compound, the residual activity [25, 46] was 94%, the residual activity [26, 46] was 93% and the residual activity [27, 46] was 45%. For the same compound, the residual activity [28, 46] was 100%, the residual activity [29, 46] was 75% and the residual activity [30, 46] was 100%. The residual activity [31, 46] was 100%, the residual activity [32, 46] was 91% and the residual activity [33, 46] was 100%. It also gave a residual activity [34, 46] of 100%, a residual activity [35, 46] of 98% and a residual activity [36, 46] of 100%. It also gave a residual activity [37, 46] of 100%, a residual activity [38, 46] of 85% and a residual activity [39, 46] of 100%. For the same compound, the residual activity [40, 46] was 100%, the residual activity [41, 46] was 96% and the residual activity [42, 46] was 100%. The inhibition [43] was 16.6% and the inhibition [44] was 5.57%.
